Measured values: paper PMC8875489, “Pharmaceutical and Safety Profile Evaluation of Novel Selenocompounds with Noteworthy Anticancer Activity” (Pharmaceutics, 2022)
Converted amounts (≈) assume the structure as drawn. Where two headings read alike, the source gives them in different places.

How the values were obtained:
[1] = Water solubility of methylseleno-aspirin (literature); format: physicochemical; settings: recalculated taking molecular weight into account
Description: The low solubility was not a surprise: according to the literature, the majority of the synthetic organic selenocompounds are poorly soluble in water. […] (or 0.0568 g/L when taking its molecular weight into account). […] To improve the solubility of water-insoluble anticancer drug candidates, the use of solubilizers, such as surfactants, organic solvents, cyclodextrins, lipids, and pH modifiers, is a common approach. Even though lowly water-soluble drugs can become moderately soluble if a suitable amount of additives is used, the usage of the additives need to be kept below their toxicity rate. Moreover, the usage of solubilizers can cause drug instability and is limited due to undesirable effects.

[2] = design: method as in PMID 33260948; settings: cited from earlier work

In the case of C[Se]C(=O)c1ccccc1OC(C)=O [methylseleno-aspirin], the water solubility [1] is given as 56.8 µg/mL (≈ 221 µM) and the water solubility [2] is given as 220 µM (≈ 56.6 µg/mL).
